Data: PubChem BioAssay AID248 (DTP/NCI, 2004)
Values joined by “and” are separate entries in the source; they are usually repeats but may differ in a detail not shown here. Identical values can stand only once. Toxic doses and inconclusive results are not listed. Cut-off read from the data, not from the text of the source: active = T/C of 150% or more; inactive = T/C below 125%.

Tested on: L1210 leukemia ip in BDF1 mice, survival T/C
Assay: NCI In Vivo Anticancer Drug Screen. Data for tumor model L1210 Leukemia (intraperitoneal) in B6D2F1 (BDF1) mice
Settings: endpoint: mean survival time, higher = longer survival
Outline: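 Ratio derived from survival: compound-dosed mice over vehicle-dosed mice, all bearing a transplantable tumor.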

[1] = dose: 50.0 mg/kg/injection, schedule: Q04DX002 (ip), vehicle: Klucel (hydroxypropylcellulose) (HPC)
[2] = dose: 100.0 mg/kg/injection, schedule: Q04DX002 (ip), vehicle: Klucel (hydroxypropylcellulose) (HPC)
[3] = dose: 200.0 mg/kg/injection, schedule: Q04DX002 (ip), vehicle: Klucel (hydroxypropylcellulose) (HPC)
[4] = dose: 400.0 mg/kg/injection, schedule: Q04DX002 (ip), vehicle: Klucel (hydroxypropylcellulose) (HPC)
[5] = dose: 50.0 mg/kg/injection, schedule: Q04DX002 (ip), vehicle: saline with Tween-80
[6] = dose: 200.0 mg/kg/injection, schedule: Q04DX003 (ip), vehicle: saline with Tween-80
[7] = dose: 100.0 mg/kg/injection, schedule: Q04DX003 (ip), vehicle: saline
[8] = dose: 200.0 mg/kg/injection, schedule: Q04DX003 (ip), vehicle: saline
[9] = dose: 400.0 mg/kg/injection, schedule: Q04DX003 (ip), vehicle: saline
[10] = dose: 50.0 mg/kg/injection, schedule: Q01DX009 (ip), vehicle: saline with Tween-80
[11] = dose: 100.0 mg/kg/injection, schedule: Q01DX009 (ip), vehicle: saline with Tween-80
[12] = dose: 200.0 mg/kg/injection, schedule: Q01DX009 (ip), vehicle: saline with Tween-80
[13] = dose: 100.0 mg/kg/injection, schedule: Q01DX009 (ip), vehicle: Klucel (hydroxypropylcellulose) (HPC)
[14] = dose: 100.0 mg/kg/injection, schedule: Q04DX002 (ip), vehicle: saline
[15] = dose: 200.0 mg/kg/injection, schedule: Q04DX002 (ip), vehicle: saline
[16] = dose: 100.0 mg/kg/injection, schedule: Q04DX003 (ip), vehicle: Klucel (hydroxypropylcellulose) (HPC)
[17] = dose: 200.0 mg/kg/injection, schedule: Q04DX003 (ip), vehicle: Klucel (hydroxypropylcellulose) (HPC)
[18] = dose: 400.0 mg/kg/injection, schedule: Q04DX003 (ip), vehicle: saline with Tween-80

Measured: T/C

CC(C)CNC(=O)CCCc1ccc(N(CCCl)CCCl)cc1
inactive: dose: 4.0 mg/kg/injection, schedule: Q12HX018 (ip), vehicle: other 110 % of control | dose: 6.0 mg/kg/injection, schedule: Q12HX018 (ip), vehicle: other 95 % of control | dose: 8.0 mg/kg/injection, schedule: Q12HX018 (ip), vehicle: other 112 % of control

CC(=O)OC1CCC2(COS(=O)(=O)c3ccc(C)cc3)C(=CCC3C2CCC2(C)C(C(C)CCCC(C)C)CCC32)C1 (centres undefined)
inactive: dose: 100.0 mg/kg/injection, schedule: Q04DX002 (ip), vehicle: steriod suspending solution 101 % of control | dose: 200.0 mg/kg/injection, schedule: Q04DX002 (ip), vehicle: steriod suspending solution 104 % of control | dose: 400.0 mg/kg/injection, schedule: Q04DX002 (ip), vehicle: steriod suspending solution 96 % of control

S=P(NCc1ccccc1)(NCc1ccccc1)NCc1ccccc1
inactive: dose: 100.0 mg/kg/injection, schedule: Q04DX002 (ip), vehicle: gum acacia 97 % of control | dose: 200.0 mg/kg/injection, schedule: Q04DX002 (ip), vehicle: gum acacia 97 % of control | dose: 400.0 mg/kg/injection, schedule: Q04DX002 (ip), vehicle: gum acacia 94 % of control

Nc1nc(N)c2[nH]c(CCc3ccccc3)nc2n1
inactive: dose: 25.0 mg/kg/injection, schedule: Q04DX002 (ip), vehicle: Klucel (hydroxypropylcellulose) (HPC) 95 % of control | [1] 91 % of control | [2] 98 % of control

C[N+]12CC3C(O)CC1CCC32 (centres undefined)
inactive: dose: 100.0 mg/kg/injection, schedule: Q01DX001 (ip), vehicle: saline 101 % of control

Cc1cccc(N2P(N(C)C)N(c3cccc(C)c3)P2(=O)N(C)C)c1 (centres undefined)
inactive: [2] 97 % of control | [3] 111 % of control | [4] 94 % of control

CCCCCCCCCCCCC(C(=O)O)C1C=CCC1 (centres undefined)
inactive: dose: 100.0 mg/kg/injection, schedule: Q01DX001 (ip), vehicle: other 95 % of control | dose: 200.0 mg/kg/injection, schedule: Q01DX001 (ip), vehicle: other 90 % of control | dose: 400.0 mg/kg/injection, schedule: Q01DX001 (ip), vehicle: other 101 % of control

CC(C)c1nc2c(n1Cc1ccccc1)C=C(C(=O)c1ccccc1)S(=O)(=O)C(C(=O)c1ccccc1)=C2
inactive: dose: 25.0 mg/kg/injection, schedule: Q04DX003 (ip), vehicle: saline with Tween-80 107 % of control and 86 % of control | dose: 50.0 mg/kg/injection, schedule: Q01DX001 (ip), vehicle: saline with Tween-80 93 % of control and 104 % of control | [1] 106 % of control | [5] 104 % of control and 105 % of control | dose: 100.0 mg/kg/injection, schedule: Q01DX001 (ip), vehicle: saline with Tween-80 93 % of control and 89 % of control | [2] 110 % of control | dose: 200.0 mg/kg/injection, schedule: Q01DX001 (ip), vehicle: saline with Tween-80 100 % of control and 91 % of control | [3] 93 % of control and 103 % of control | [6] 96 % of control and 89 % of control | [4] 93 % of control | dose: 400.0 mg/kg/injection, schedule: Q04DX002 (ip), vehicle: saline with Tween-80 93 % of control and 89 % of control

COCC(N)=O
inactive: dose: 100.0 mg/kg/injection, schedule: Q01DX009 (ip), vehicle: saline 95 % of control | [7] 107 % of control | dose: 200.0 mg/kg/injection, schedule: Q01DX009 (ip), vehicle: saline 97 % of control | [8] 107 % of control | dose: 400.0 mg/kg/injection, schedule: Q01DX009 (ip), vehicle: saline 97 % of control | [9] 101 % of control

O=CN(O)CC(=O)O.[Zn]
inactive: dose: 6.25 mg/kg/injection, schedule: Q01DX009 (ip), vehicle: saline 105 % of control | dose: 12.5 mg/kg/injection, schedule: Q01DX009 (ip), vehicle: saline 100 % of control | dose: 25.0 mg/kg/injection, schedule: Q01DX009 (ip), vehicle: saline 120 % of control

COC(=O)CC(=O)C(C)(C)C
inactive: [10] 101 % of control | [11] 101 % of control | [12] 101 % of control

O=C(c1ccccc1Cl)c1cccc2ccccc12
inactive: [7] 115 % of control | [8] 100 % of control | [9] 106 % of control

CC(=O)c1cccc(NC(=O)COc2cc(Cl)c(Cl)cc2Cl)c1
inactive: [2] 106 % of control | [3] 113 % of control | [4] 102 % of control

CC(=O)OC1CCC2(C)C3=C(CCC2C1(C)C)C1(C)CCC(C(C)CCC=C(C)C)C1(C)CC3 (centres undefined)
inactive: dose: 50.0 mg/kg/injection, schedule: Q01DX009 (ip), vehicle: Klucel (hydroxypropylcellulose) (HPC) 102 % of control | [13] 94 % of control

CCCCCCC#CC(=O)OCC
inactive: [14] 89 % of control | [15] 104 % of control

CCCCCCCCCCCC(=O)Nc1ccc(N(C)C(C)=O)cc1
inactive: [13] 90 % of control | [2] 89 % of control | dose: 200.0 mg/kg/injection, schedule: Q01DX009 (ip), vehicle: Klucel (hydroxypropylcellulose) (HPC) 95 % of control | [3] 100 % of control | dose: 400.0 mg/kg/injection, schedule: Q01DX009 (ip), vehicle: Klucel (hydroxypropylcellulose) (HPC) 97 % of control | [4] 100 % of control

O=[N+]([O-])c1cc(CN2CCCCC2)c(O)c2cccnc12
inactive: dose: 75.0 mg/kg/injection, schedule: Q01DX001 (ip), vehicle: saline 101 % of control | dose: 150.0 mg/kg/injection, schedule: Q01DX001 (ip), vehicle: saline 106 % of control | dose: 300.0 mg/kg/injection, schedule: Q01DX001 (ip), vehicle: saline 101 % of control

CN=C(NC)c1ccc(Cl)c(Cl)c1
inactive: [16] 96 % of control | [17] 98 % of control

Cn1c(=O)cn[nH]c1=O
inactive: [10] 100 % of control | [11] 108 % of control | [12] 103 % of control

OC1C(Cl)(Cl)CCCC1(Cl)Cl
inactive: [10] 90 % of control | [11] 94 % of control | [12] 98 % of control

O=C(Oc1cccc(OC(=O)c2ccccc2)c1)c1ccccc1
inactive: dose: 100.0 mg/kg/injection, schedule: Q04DX003 (ip), vehicle: saline with Tween-80 100 % of control | [6] 91 % of control | [18] 88 % of control

C=COCCCCOC=C
inactive: [16] 113 % of control | [17] 105 % of control | dose: 400.0 mg/kg/injection, schedule: Q04DX003 (ip), vehicle: Klucel (hydroxypropylcellulose) (HPC) 105 % of control

Cc1ccc(C(=O)N/N=C/c2ccc(N(C)C)cc2Cl)cc1
inactive: [14] 105 % of control | [15] 108 % of control | dose: 400.0 mg/kg/injection, schedule: Q04DX002 (ip), vehicle: saline 105 % of control

CCN1CCCN(CC)C1=O
inactive: [2] 96 % of control | [3] 96 % of control | [4] 90 % of control

ClC(Cl)(Cl)c1cccc(C(Cl)(Cl)Cl)n1
inactive: dose: 100.0 mg/kg/injection, schedule: Q04DX003 (sc), vehicle: olive oil, sesame oil, peanut oil 97 % of control and 103 % of control | dose: 200.0 mg/kg/injection, schedule: Q04DX003 (sc), vehicle: olive oil, sesame oil, peanut oil 97 % of control and 103 % of control | dose: 400.0 mg/kg/injection, schedule: Q04DX003 (sc), vehicle: olive oil, sesame oil, peanut oil 100 % of control and 101 % of control

CCN(CC)C(=S)Oc1ccc(OC(=S)N(CC)CC)cc1
inactive: dose: 12.5 mg/kg/injection, schedule: Q04DX002 (ip), vehicle: saline with Tween-80 93 % of control | dose: 25.0 mg/kg/injection, schedule: Q04DX002 (ip), vehicle: saline with Tween-80 97 % of control | [5] 93 % of control | [6] 89 % of control | [18] 91 % of control
